In ChEMBL document CHEMBL1142926, “A new modification of anti-tubercular active molecules” (Bioorg Med Chem, 2007):
In brackets after ≈: the same amount, converted by molar mass.

Experiments:
[1] = test system: Mycobacterium tuberculosis; experiment: Antimycobacterial activity against Mycobacterium tuberculosis H37Rv; assay type: functional, organism-based
[2] = test system: Mycobacterium tuberculosis; experiment: Antimycobacterial activity against Mycobacterium tuberculosis H37Rv at 6.25 ug/mL; assay type: functional
[3] = Lipophilicity, log K of the compound; assay type: physicochemical; details: octanol/water
[4] = Stability after 7 days; assay type: physicochemical; details: read-out: Stability
[5] = Stability after 14 days; assay type: physicochemical; details: read-out: Stability
[6] = Stability after 21 days; assay type: physicochemical; details: read-out: Stability
[7] = test system: Mycobacterium tuberculosis; experiment: Antimycobacterial activity against Mycobacterium tuberculosis 331/88 after 14 days; assay type: functional; details: 336 h
Mycobacterium avium [8] = experiment: Antimycobacterial activity against Mycobacterium avium 330/88 after 14 days; assay type: functional; details: 336 h
Mycobacterium kansasii [9] = experiment: Antimycobacterial activity against Mycobacterium kansasii 235/80 after 14 days; assay type: functional; details: 336 h
[10] = test system: Mycobacterium tuberculosis; experiment: Antimycobacterial activity against Mycobacterium tuberculosis 331/88 after 21 days; assay type: functional; details: 504 h
Mycobacterium avium [11] = experiment: Antimycobacterial activity against Mycobacterium avium 330/88 after 21 days; assay type: functional; details: 504 h
Mycobacterium kansasii [12] = experiment: Antimycobacterial activity against Mycobacterium kansasii 235/80 after 7 days; assay type: functional; details: 168 h
Mycobacterium kansasii [13] = experiment: Antimycobacterial activity against Mycobacterium kansasii 235/80 after 21 days; assay type: functional; details: 504 h
Mycobacterium kansasii [14] = experiment: Antimycobacterial activity against Mycobacterium kansasii 6509/96 after 14 days; assay type: functional; details: 336 h
Mycobacterium kansasii [15] = experiment: Antimycobacterial activity against Mycobacterium kansasii 6509/96 after 7 days; assay type: functional; details: 168 h
Mycobacterium kansasii [16] = experiment: Antimycobacterial activity against Mycobacterium kansasii 6509/96 after 21 days; assay type: functional; details: 504 h
[17] = Stability within 7 days; assay type: physicochemical; details: 168 h

Structure (SMILES)	MIC [1] [µg/mL]	inhibition at 6.25 µg/mL [2] [%]	log K [3]	remaining at 168 h [4] [%]	remaining at 336 h [5] [%]	remaining at 504 h [6] [%]	IC50 [1] [µg/mL]	MIC [7] [µM]	MIC (Mycobacterium avium [8]) [µM]	MIC (Mycobacterium kansasii [9]) [µM]	MIC [10] [µM]	MIC (Mycobacterium avium [11]) [µM]	MIC (Mycobacterium kansasii [12]) [µM]	MIC (Mycobacterium kansasii [13]) [µM]	MIC (Mycobacterium kansasii [14]) [µM]	MIC (Mycobacterium kansasii [15]) [µM]	MIC (Mycobacterium kansasii [16]) [µM]	Activity [17]
CN(C)/C=N/C(=O)c1cnccn1	> 6.25	1	0.1718															
O=C(N/N=C/NNC(=O)c1ccncc1)c1ccncc1	0.39 (≈ 1.37 µM)	96	0.3027	19	4	1	> 62.5											
NC(=O)c1cnccn1 [PYRAZINAMIDE]	6 (≈ 48.7 µM)							8 (≈ 0.985 µg/mL)	> 128	> 128	8 (≈ 0.985 µg/mL)	> 128	> 128	> 128				
O=C(N/N=C/NCc1ccccc1)c1ccncc1	> 6.25	93	0.5426				> 10	32 (≈ 8.14 µg/mL)	1000 (≈ 254 µg/mL)	1000 (≈ 254 µg/mL)	65.5 (≈ 16.7 µg/mL)	> 1000	500 (≈ 127 µg/mL)	1000 (≈ 254 µg/mL)	250 (≈ 63.6 µg/mL)	125 (≈ 31.8 µg/mL)	250 (≈ 63.6 µg/mL)	
O=C(O)c1cn(C2CC2)c2cc(N3CCNCC3)c(F)cc2c1=O [CIPROFLOXACIN]	2 (≈ 6.04 µM)	98					> 10	16 (≈ 5.3 µg/mL)										
O=C(/N=C/N1CCN(c2cc3c(cc2F)c(=O)c(C(=O)O)cn3C2CC2)CC1)c1cnccn1	0.78 (≈ 1.68 µM)	100	0.97				> 10	2 (≈ 0.929 µg/mL)	62.5 (≈ 29 µg/mL)	2 (≈ 0.929 µg/mL)	4 (≈ 1.86 µg/mL)	125 (≈ 58.1 µg/mL)	1 (≈ 0.464 µg/mL)	4 (≈ 1.86 µg/mL)	2 (≈ 0.929 µg/mL)	2 (≈ 0.929 µg/mL)	4 (≈ 1.86 µg/mL)	Not Active
O=C(NN/C=N/C(=O)c1cnccn1)c1ccncc1	0.1 (≈ 0.37 µM)	94	0.3562				> 10	4 (≈ 1.08 µg/mL)	125 (≈ 33.8 µg/mL)	1000 (≈ 270 µg/mL)	8 (≈ 2.16 µg/mL)	125 (≈ 33.8 µg/mL)	500 (≈ 135 µg/mL)	1000 (≈ 270 µg/mL)	8 (≈ 2.16 µg/mL)	8 (≈ 2.16 µg/mL)	16 (≈ 4.32 µg/mL)	Not Active
O=C(N/N=C/Nc1ccc(C(=O)O)c(O)c1)c1ccncc1	0.39 (≈ 1.3 µM)	96	0.366				> 62.5	4 (≈ 1.2 µg/mL)	125 (≈ 37.5 µg/mL)	1000 (≈ 300 µg/mL)	8 (≈ 2.4 µg/mL)	125 (≈ 37.5 µg/mL)	500 (≈ 150 µg/mL)	1000 (≈ 300 µg/mL)	250 (≈ 75.1 µg/mL)	125 (≈ 37.5 µg/mL)	250 (≈ 75.1 µg/mL)	Not Active
O=C(/N=C/Nc1ccc(C(=O)O)c(O)c1)c1cnccn1	3.13 (≈ 10.9 µM)	98	0.3695	10	1	0.1	> 10	8 (≈ 2.29 µg/mL)	32 (≈ 9.16 µg/mL)	32 (≈ 9.16 µg/mL)	16 (≈ 4.58 µg/mL)	62.5 (≈ 17.9 µg/mL)	16 (≈ 4.58 µg/mL)	32 (≈ 9.16 µg/mL)	16 (≈ 4.58 µg/mL)	8 (≈ 2.29 µg/mL)	32 (≈ 9.16 µg/mL)	
NNC(=O)c1ccncc1 [ISONIAZID]	0.025 (≈ 0.182 µM)						> 100	1 (≈ 0.137 µg/mL)	> 250	> 250	1 (≈ 0.137 µg/mL)	> 250	> 250	> 250	4 (≈ 0.549 µg/mL)	2 (≈ 0.274 µg/mL)	4 (≈ 0.549 µg/mL)	
O=C(N/N=C/NCc1ccccn1)c1ccncc1	6.25 (≈ 24.5 µM)	92	0.3343				> 10	16 (≈ 4.08 µg/mL)	1000 (≈ 255 µg/mL)	1000 (≈ 255 µg/mL)	32 (≈ 8.17 µg/mL)	> 1000	1000 (≈ 255 µg/mL)	1000 (≈ 255 µg/mL)	125 (≈ 31.9 µg/mL)	62.5 (≈ 16 µg/mL)	125 (≈ 31.9 µg/mL)	
O=C(N/N=C/N1CCOCC1)c1ccncc1	> 6.25	74	0.2653															
O=C(N/N=C\N1CCN(c2cc3c(cc2F)c(=O)c(C(=O)O)cn3C2CC2)CC1)c1ccncc1	3.13 (≈ 6.54 µM)	99	0.9159	30	10	3		2 (≈ 0.957 µg/mL)	125 (≈ 59.8 µg/mL)	4 (≈ 1.91 µg/mL)	4 (≈ 1.91 µg/mL)	250 (≈ 120 µg/mL)	2 (≈ 0.957 µg/mL)	8 (≈ 3.83 µg/mL)	4 (≈ 1.91 µg/mL)	2 (≈ 0.957 µg/mL)	8 (≈ 3.83 µg/mL)	
CN(C)/C=N/NC(=O)c1ccncc1	> 6.25	1	0.252					16 (≈ 3.08 µg/mL)	1000 (≈ 192 µg/mL)	500 (≈ 96.1 µg/mL)	16 (≈ 3.08 µg/mL)	> 1000	250 (≈ 48.1 µg/mL)	1000 (≈ 192 µg/mL)	250 (≈ 48.1 µg/mL)	125 (≈ 24 µg/mL)	500 (≈ 96.1 µg/mL)	
CCC(CO)N1CCN(C(CC)CO)C1OS(=O)(=O)c1ccc(C)cc1 (centres undefined)	> 6.25	0	0.243					250 (≈ 96.6 µg/mL)	500 (≈ 193 µg/mL)	1000 (≈ 387 µg/mL)	500 (≈ 193 µg/mL)	1000 (≈ 387 µg/mL)	500 (≈ 193 µg/mL)	1000 (≈ 387 µg/mL)	500 (≈ 193 µg/mL)	250 (≈ 96.6 µg/mL)	1000 (≈ 387 µg/mL)	
